{
  "source": "ChEMBL document CHEMBL1681693",
  "about": "“Synthesis and SAR of centrally active mGlu5 positive allosteric modulators based on an aryl acetylenic bicyclic lactam scaffold” (Bioorg Med Chem Lett, 2011)",
  "key": {"[1]": {"target": "T1, Metabotropic glutamate receptor 5 (Homo sapiens, UniProt P41594)", "experiment": "Positive allosteric modulation of mGlu5 receptor assessed as calcium mobilization at 30 uM relative to glutamate", "type": "functional"}, "[2]": {"target": "T1, Metabotropic glutamate receptor 5", "experiment": "Positive allosteric modulation of mGlu5 receptor assessed as calcium mobilization", "type": "functional"}, "[3]": {"target": "T1, Metabotropic glutamate receptor 5", "experiment": "Antagonist activity against mGlu5 receptor assessed as inhibition of calcium mobilization"}, "Rattus norvegicus": {"system": "Rattus norvegicus", "experiment": "Antipsychotic activity in rat assessed as reversal of amphetamine-induced hyperlocomotion at 30 mg/kg, ip", "type": "functional, organism-based", "parameters": "dose 30 mg/kg"}},
  "note": "Active and inactive are the calls of the source. No cut-off for these calls is given here.",
  "data": [
    {"compound": "O=C1NCCc2nc(C#Cc3cccc(F)c3)ccc21", "values": [
      {"measurement": "Activity", "setting": "[1]", "value": 72, "unit": "%"},
      {"measurement": "EC50", "setting": "[2]", "value": 290, "unit": "nM"}
    ]},
    {"compound": "O=C(NC1CCC1)c1ccc(C#Cc2cccc(F)c2)nc1", "values": [
      {"measurement": "Activity", "setting": "[1]", "value": 87, "unit": "%"},
      {"measurement": "EC50", "setting": "[2]", "value": 16, "unit": "nM"}
    ]},
    {"compound": "Cc1ccccc1C#Cc1ccc2c(c1)CCNC2=O", "values": [
      {"measurement": "Activity", "setting": "[1]", "value": 53, "unit": "%"},
      {"measurement": "EC50", "setting": "[2]", "value": 610, "unit": "nM"}
    ]},
    {"compound": "COc1cccc(C#Cc2ccc3c(c2)CCNC3=O)c1", "values": [
      {"measurement": "Activity", "setting": "[1]", "value": 58, "unit": "%"},
      {"measurement": "EC50", "setting": "[2]", "value": 3400, "unit": "nM"}
    ]},
    {"compound": "COc1ccc(C#Cc2ccc3c(c2)CCNC3=O)cc1", "values": [
      {"measurement": "EC50", "setting": "[2]", "value": "> 10000", "unit": "nM"}
    ]},
    {"compound": "O=C1NCc2cc(C#Cc3ccc(F)cc3)ccc21", "values": [
      {"measurement": "Activity", "setting": "[1]", "value": 60, "unit": "%"},
      {"measurement": "EC50", "setting": "[2]", "value": 350, "unit": "nM"}
    ]},
    {"compound": "O=C1NC(=O)c2cc(C#Cc3cccc(F)c3)ccc21", "values": [
      {"measurement": "Activity", "setting": "[1]", "value": 99, "unit": "%"},
      {"measurement": "EC50", "setting": "[2]", "value": 35, "unit": "nM"}
    ]},
    {"compound": "O=C1c2ccc(C#Cc3ccccc3)cc2CCN1Cc1ccccc1", "values": [
      {"measurement": "Activity", "setting": "[1]", "value": 90, "unit": "%"},
      {"measurement": "EC50", "setting": "[2]", "value": 550, "unit": "nM"}
    ]},
    {"compound": "O=C1c2ccc(C#Cc3ccccc3)cc2C(=O)N1CCc1ccncc1", "values": [
      {"measurement": "Activity", "setting": "[1]", "value": 76, "unit": "%"},
      {"measurement": "EC50", "setting": "[2]", "value": 900, "unit": "nM"}
    ]},
    {"compound": "O=C(c1ccc(C#Cc2ccccc2)cc1)N1CCC(O)CC1", "values": [
      {"measurement": "Activity", "setting": "[1]", "value": 72, "unit": "%"},
      {"measurement": "EC50", "setting": "[2]", "value": 10, "unit": "nM"}
    ]},
    {"compound": "CN1CCc2nc(C#Cc3cccc(F)c3)ccc2C1=O", "values": [
      {"measurement": "IC50", "setting": "[3]", "value": 170, "unit": "nM"}
    ]},
    {"compound": "O=C1NC(=O)c2cc(C#Cc3ccc(F)cc3)ccc21", "values": [
      {"measurement": "Activity", "setting": "[1]", "value": 88, "unit": "%"},
      {"measurement": "EC50", "setting": "[2]", "value": 160, "unit": "nM"}
    ]},
    {"compound": "O=C1c2ccc(C#Cc3ccccc3)cc2CCN1CCN1CCC1", "values": [
      {"measurement": "Activity", "setting": "[1]", "value": 77, "unit": "%"},
      {"measurement": "EC50", "setting": "[2]", "value": 4000, "unit": "nM"}
    ]},
    {"compound": "O=C1NCCc2cc(C#Cc3ccc(F)cc3)ccc21", "values": [
      {"measurement": "Activity", "setting": "[1]", "value": 81, "unit": "%"},
      {"measurement": "EC50", "setting": "[2]", "value": 260, "unit": "nM"}
    ]},
    {"compound": "Cc1cccc(C#Cc2ccc3c(c2)CCNC3=O)c1", "values": [
      {"measurement": "Activity", "setting": "[1]", "value": 76, "unit": "%"},
      {"measurement": "EC50", "setting": "[2]", "value": 170, "unit": "nM"}
    ]},
    {"compound": "O=C1c2ccc(C#Cc3cccc(F)c3)nc2CCN1CC1CC1", "values": [
      {"measurement": "IC50", "setting": "[3]", "value": 660, "unit": "nM"}
    ]},
    {"compound": "CN1CCc2cc(C#Cc3ccccc3)ccc2C1=O", "values": [
      {"measurement": "Activity", "setting": "[1]", "value": 53, "unit": "%"},
      {"measurement": "EC50", "setting": "[2]", "value": 250, "unit": "nM"}
    ]},
    {"compound": "O=C1c2ccc(C#Cc3cccc(F)c3)nc2CCN1CC1CCC1", "values": [
      {"measurement": "Activity", "setting": "[1]", "value": 53, "unit": "%"},
      {"measurement": "EC50", "setting": "[2]", "value": 130, "unit": "nM"}
    ]},
    {"compound": "O=C1c2ccc(C#Cc3ccccc3)cc2C(=O)N1CCN1CCOCC1", "values": [
      {"measurement": "Activity", "setting": "[1]", "value": 44, "unit": "%"},
      {"measurement": "EC50", "setting": "[2]", "value": 5700, "unit": "nM"}
    ]},
    {"compound": "O=C1NCCc2cc(C#Cc3ccc(F)cc3F)ccc21", "values": [
      {"measurement": "Activity", "setting": "[1]", "value": 59, "unit": "%"},
      {"measurement": "EC50", "setting": "[2]", "value": 850, "unit": "nM"}
    ]},
    {"compound": "O=C1NCCc2cc(C#Cc3cccc(Cl)c3)ccc21", "values": [
      {"measurement": "Activity", "setting": "[1]", "value": 68, "unit": "%"},
      {"measurement": "EC50", "setting": "[2]", "value": 470, "unit": "nM"}
    ]},
    {"compound": "O=C1NCc2cc(C#Cc3ccccc3F)ccc21", "values": [
      {"measurement": "Activity", "setting": "[1]", "value": 67, "unit": "%"},
      {"measurement": "EC50", "setting": "[2]", "value": 200, "unit": "nM"}
    ]},
    {"compound": "O=C1c2ccc(C#Cc3ccccc3)cc2CCN1CC1CC1", "values": [
      {"measurement": "Activity", "setting": "[1]", "value": 69, "unit": "%"},
      {"measurement": "Activity", "setting": "Rattus norvegicus", "value": "Active"},
      {"measurement": "EC50", "setting": "[2]", "value": 180, "unit": "nM"}
    ]},
    {"compound": "O=C1NC(=O)c2cc(C#Cc3ccc(F)c(F)c3)ccc21", "values": [
      {"measurement": "Activity", "setting": "[1]", "value": 84, "unit": "%"},
      {"measurement": "EC50", "setting": "[2]", "value": 170, "unit": "nM"}
    ]},
    {"compound": "O=C1NCCc2cc(C#Cc3ccccc3F)ccc21", "values": [
      {"measurement": "Activity", "setting": "[1]", "value": 80, "unit": "%"},
      {"measurement": "EC50", "setting": "[2]", "value": 150, "unit": "nM"}
    ]},
    {"compound": "CCCCN1CCc2cc(C#Cc3ccccc3)ccc2C1=O", "values": [
      {"measurement": "Activity", "setting": "[1]", "value": 97, "unit": "%"},
      {"measurement": "EC50", "setting": "[2]", "value": 96, "unit": "nM"}
    ]},
    {"compound": "O=C1NCc2cc(C#Cc3cccc(F)c3)ccc21", "values": [
      {"measurement": "Activity", "setting": "[1]", "value": 71, "unit": "%"},
      {"measurement": "EC50", "setting": "[2]", "value": 66, "unit": "nM"}
    ]},
    {"compound": "O=C1NCCc2cc(C#Cc3ccccc3)ccc21", "values": [
      {"measurement": "Activity", "setting": "Rattus norvegicus", "value": "Active"}
    ]},
    {"compound": "O=C1c2ccc(C#Cc3ccccc3)cc2CCN1CCN1CCOCC1", "values": [
      {"measurement": "Activity", "setting": "[1]", "value": 84, "unit": "%"},
      {"measurement": "EC50", "setting": "[2]", "value": 3600, "unit": "nM"}
    ]},
    {"compound": "CCCCN1CCc2nc(C#Cc3cccc(F)c3)ccc2C1=O", "values": [
      {"measurement": "Activity", "setting": "[1]", "value": 46, "unit": "%"},
      {"measurement": "EC50", "setting": "[2]", "value": 56, "unit": "nM"}
    ]},
    {"compound": "CCCN1CCc2cc(C#Cc3ccccc3)ccc2C1=O", "values": [
      {"measurement": "Activity", "setting": "[1]", "value": 97, "unit": "%"},
      {"measurement": "Activity", "setting": "Rattus norvegicus", "value": "Active"},
      {"measurement": "EC50", "setting": "[2]", "value": 160, "unit": "nM"}
    ]},
    {"compound": "CC(C)CN1CCc2nc(C#Cc3cccc(F)c3)ccc2C1=O", "values": [
      {"measurement": "Activity", "setting": "[1]", "value": 40, "unit": "%"},
      {"measurement": "EC50", "setting": "[2]", "value": 54, "unit": "nM"}
    ]},
    {"compound": "O=C1NCc2cc(C#Cc3ccccc3)ccc21", "values": [
      {"measurement": "Activity", "setting": "[1]", "value": 69, "unit": "%"}
    ]},
    {"compound": "O=C1c2ccc(C#Cc3ccccc3)cc2C(=O)N1CCc1ccccn1", "values": [
      {"measurement": "Activity", "setting": "[1]", "value": 40, "unit": "%"},
      {"measurement": "EC50", "setting": "[2]", "value": 870, "unit": "nM"}
    ]},
    {"compound": "O=C1NC(=O)c2cc(C#Cc3ccccc3F)ccc21", "values": [
      {"measurement": "Activity", "setting": "[1]", "value": 93, "unit": "%"},
      {"measurement": "EC50", "setting": "[2]", "value": 12, "unit": "nM"}
    ]},
    {"compound": "O=C1NCCc2cc(C#Cc3ccc(Cl)cc3)ccc21", "values": [
      {"measurement": "EC50", "setting": "[2]", "value": "> 10000", "unit": "nM"}
    ]},
    {"compound": "O=C1c2ccc(C#Cc3ccccc3)cc2CCN1CC1CCC1", "values": [
      {"measurement": "Activity", "setting": "[1]", "value": 91, "unit": "%"},
      {"measurement": "EC50", "setting": "[2]", "value": 270, "unit": "nM"}
    ]},
    {"compound": "O=C1NCCc2cc(C#Cc3ccccc3Cl)ccc21", "values": [
      {"measurement": "Activity", "setting": "[1]", "value": 50, "unit": "%"},
      {"measurement": "EC50", "setting": "[2]", "value": 3700, "unit": "nM"}
    ]},
    {"compound": "Cc1cc(C#Cc2ccc3c(c2)CCNC3=O)ccc1F", "values": [
      {"measurement": "Activity", "setting": "[1]", "value": 53, "unit": "%"},
      {"measurement": "EC50", "setting": "[2]", "value": 4900, "unit": "nM"}
    ]}
  ]
}
